From publication PMC3469757 (Journal of medicinal chemistry, 2012) come the findings set out here.

SMILES strings stand for the structures.

T1 sequence (Q8NER1 whole entry): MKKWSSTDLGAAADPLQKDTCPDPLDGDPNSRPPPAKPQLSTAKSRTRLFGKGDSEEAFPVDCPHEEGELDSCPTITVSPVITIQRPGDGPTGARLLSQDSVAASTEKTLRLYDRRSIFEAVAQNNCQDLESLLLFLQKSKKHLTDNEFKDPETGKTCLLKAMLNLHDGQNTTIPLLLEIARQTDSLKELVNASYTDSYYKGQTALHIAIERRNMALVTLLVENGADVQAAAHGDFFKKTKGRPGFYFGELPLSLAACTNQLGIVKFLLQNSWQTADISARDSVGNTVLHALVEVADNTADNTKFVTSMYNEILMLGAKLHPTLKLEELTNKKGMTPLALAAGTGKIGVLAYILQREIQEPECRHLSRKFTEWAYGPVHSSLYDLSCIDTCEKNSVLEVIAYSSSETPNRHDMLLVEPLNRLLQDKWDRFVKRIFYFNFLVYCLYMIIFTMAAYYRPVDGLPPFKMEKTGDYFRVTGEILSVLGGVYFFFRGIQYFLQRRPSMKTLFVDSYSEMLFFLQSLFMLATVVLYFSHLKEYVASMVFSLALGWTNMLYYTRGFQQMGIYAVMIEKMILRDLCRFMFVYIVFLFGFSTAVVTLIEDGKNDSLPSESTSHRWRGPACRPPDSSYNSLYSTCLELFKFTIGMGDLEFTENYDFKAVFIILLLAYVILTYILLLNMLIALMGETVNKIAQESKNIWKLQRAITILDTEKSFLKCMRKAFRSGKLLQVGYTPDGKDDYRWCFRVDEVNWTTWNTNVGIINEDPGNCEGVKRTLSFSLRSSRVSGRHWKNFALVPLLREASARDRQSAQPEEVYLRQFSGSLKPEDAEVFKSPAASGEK

The first assay addresses T1, human TRPV1 (Homo sapiens, UniProt Q8NER1). As to the kind of experiment: pH assay. The settings on record: read-out: IC50 [pH]; hTRPV1 in CHO cells, activator pH 6.0 to 6.3. In kind it is cell-based.
On to `CC(C(=O)NCc1ccc(C(F)(F)F)nc1N1CCN(c2ccncc2)CC1)c1ccc(NS(C)(=O)=O)c(F)c1` (stereo not shown) [Compound 92, 2-(3-Fluoro-4-(methylsulfonamido)phenyl)-N-((2-(4-(pyridin-4-yl)piperazin-1-yl)-6-(trifluoromethyl)pyridin-3-yl)methyl)propanamide], for which the IC50 is over 10 µM.
Still for that read-out and setting: to `CC1CCCN1c1nc(C(F)(F)F)ccc1CNC(=O)[C@@H](C)c1ccc(NS(C)(=O)=O)c(F)c1` (stereo partly drawn) [Compound 34, (2S)-2-(3-Fluoro-4-(methylsulfonamido)phenyl)-N-((2-(2-methylpyrrolidin-1-yl)-6-(trifluoromethyl)pyridin-3-yl)methyl)propanamide] belongs over 10 µM; to `CC(C(=O)NCc1ccc(C(F)(F)F)nc1)c1ccc(NS(C)(=O)=O)c(F)c1` (stereo not shown) [Compound 12, 2-(3-Fluoro-4-(methylsulfonamido)phenyl)-N-((6-(trifluoromethyl)pyridin-3-yl)methyl)propanamide], over 10 µM.
Same read-out and setting: to `O=C(/C=C/c1ccc(C(F)(F)F)nc1N1CCCCC1)Nc1ccc2cccnc2c1` [Compound 3, reference compound] belongs over 10 µM; to `CC(C(=O)NCc1ccc(C(F)(F)F)nc1N1CCC(O)CC1)c1ccc(NS(C)(=O)=O)c(F)c1` (stereo not shown) [Compound 65, 2-(3-Fluoro-4-(methylsulfonamido)phenyl)-N-((2-(4-hydroxypiperidin-1-yl)-6-(trifluoromethyl)pyridin-3-yl)methyl)propanamide], over 10 µM; to `CC1CCCN(c2nc(C(F)(F)F)ccc2CNC(=O)C(C)c2ccc(NS(C)(=O)=O)c(F)c2)C1` (stereo not shown) [Compound 48, 2-(3-Fluoro-4-(methylsulfonamido)phenyl)-N-((2-(3-methylpiperidin-1-yl)-6-(trifluoromethyl)pyridin-3-yl)methyl)propanamide], over 10 µM.
Consider `CC(C(=O)NCc1ccc(C(F)(F)F)nc1N1CCCCC1C)c1ccc(NS(C)(=O)=O)c(F)c1` (stereo not shown) [Compound 47, 2-(3-Fluoro-4-(methylsulfonamido)phenyl)-N-((2-(2-methylpiperidin-1-yl)-6-(trifluoromethyl)pyridin-3-yl)methyl)propanamide], for which the IC50 was over 10 µM.
On the same count and under the same terms, to `CC(C(=O)NCc1ccc(C(F)(F)F)nc1N1CCC(N2CCCC2)CC1)c1ccc(NS(C)(=O)=O)c(F)c1` (stereo not shown) [Compound 76, 2-(3-Fluoro-4-(methylsulfonamido)phenyl)-N-((2-(4-(pyrrolidin-1-yl)piperidin-1-yl)-6-(trifluoromethyl)pyridin-3-yl)methyl)propanamide] belongs over 10 µM; to `CC(C(=O)NCc1ccc(C(F)(F)F)nc1N1CCN(C2CCCCC2)CC1)c1ccc(NS(C)(=O)=O)c(F)c1` (stereo not shown) [Compound 83, N-((2-(4-Cyclohexylpiperazin-1-yl)-6-(trifluoromethyl)pyridin-3-yl)methyl)-2-(3-fluoro-4-(methylsulfonamido)phenyl)propanamide], over 10 µM; to `C[C@H](C(=O)NCc1ccc(C(F)(F)F)nc1N1CCC[C@H]1C(=O)N(C)C)c1ccc(NS(C)(=O)=O)c(F)c1` [Compound 36, (S)-1-(3-(((S)-2-(3-Fluoro-4-(methylsulfonamido)phenyl)propanamido)methyl)-6-(trifluoromethyl)pyridin-2-yl)-N,N-dimethylpyrrolidine-2-carboxamide], over 10 µM.
Same read-out and setting: next, `C[C@H](C(=O)NCc1ccc(C(F)(F)F)nc1N1CCC[C@H]1CO)c1ccc(NS(C)(=O)=O)c(F)c1` [Compound 35, (S)-2-(3-Fluoro-4-(methylsulfonamido)phenyl)-N-((2-((S)-2-(hydroxymethyl)pyrrolidin-1-yl)-6-(trifluoromethyl)pyridin-3-yl)methyl)propanamide]: over 10 µM; `CC(C)OC1CCN(c2nc(C(F)(F)F)ccc2CNC(=O)C(C)c2ccc(NS(C)(=O)=O)c(F)c2)CC1` (stereo not shown) [Compound 70, 2-(3-Fluoro-4-(methylsulfonamido)phenyl)-N-((2-(4-isopropoxypiperidin-1-yl)-6-(trifluoromethyl)pyridin-3-yl)methyl)propanamide]: over 10 µM; `CC(C(=O)NCc1ccc(C(F)(F)F)nc1N1CCS(=O)(=O)CC1)c1ccc(NS(C)(=O)=O)c(F)c1` (stereo not shown) [Compound 99, N-((2-(1,1-Dioxidothiomorpholino)-6-(trifluoromethyl)pyridin-3-yl)methyl)-2-(3-fluoro-4-(methylsulfonamido)phenyl)propanamide]: over 10 µM.
Still for that read-out and setting: to `CC(C(=O)NCc1ccc(C(F)(F)F)nc1N1CCC(=O)CC1)c1ccc(NS(C)(=O)=O)c(F)c1` (stereo not shown) [Compound 64, 2-(3-Fluoro-4-(methylsulfonamido)phenyl)-N-((2-(4-oxopiperidin-1-yl)-6-(trifluoromethyl)pyridin-3-yl)methyl)propanamide] belongs over 10 µM; to `CC(C(=O)NCc1ccc(C(F)(F)F)nc1NCc1ccccn1)c1ccc(NS(C)(=O)=O)c(F)c1` (stereo not shown) [Compound 24, 2-(3-Fluoro-4-(methylsulfonamido)phenyl)-N-((2-((pyridin-2-ylmethyl)amino)-6-(trifluoromethyl)pyridin-3-yl)methyl)propanamide], over 10 µM; to `CC(C(=O)NCc1ccc(C(F)(F)F)nc1N1CCC(N2CCCCC2)CC1)c1ccc(NS(C)(=O)=O)c(F)c1` (stereo not shown) [Compound 75, N-((2-([1,4'-Bipiperidin]-1'-yl)-6-(trifluoromethyl)pyridin-3-yl)methyl)-2-(3-fluoro-4-(methylsulfonamido)phenyl)propanamide], over 10 µM.
On to `CC(C(=O)NCc1ccc(C(F)(F)F)nc1Nc1ccc(F)cc1)c1ccc(NS(C)(=O)=O)c(F)c1` (stereo not shown) [Compound 18, 2-(3-Fluoro-4-(methylsulfonamido)phenyl)-N-((2-((4-fluorophenyl)amino)-6-(trifluoromethyl)pyridin-3-yl)methyl)propanamide], for which the half-inhibitory concentration (IC50) is over 10 µM.
On the same count and under the same terms, next, `CC(C)(C)c1ccc(CNC(=S)NCc2ccc(NS(C)(=O)=O)c(F)c2)cc1` [Compound 1, reference compound]: over 10 µM.
Still for that read-out and setting: next, `CC(C(=O)NCc1ccc(C(F)(F)F)nc1N1CCN(C)CC1)c1ccc(NS(C)(=O)=O)c(F)c1` (stereo not shown) [Compound 82, 2-(3-Fluoro-4-(methylsulfonamido)phenyl)-N-((2-(4-methylpiperazin-1-yl)-6-(trifluoromethyl)pyridin-3-yl)methyl)propanamide]: over 10 µM; `CC(C(=O)NCc1ccc(C(F)(F)F)nc1N1CCN(c2ncccc2C(F)(F)F)CC1)c1ccc(NS(C)(=O)=O)c(F)c1` (stereo not shown) [Compound 95, 2-(3-Fluoro-4-(methylsulfonamido)phenyl)-N-((6-(trifluoromethyl)-2-(4-(3-(trifluoromethyl)pyridin-2-yl)piperazin-1-yl)pyridin-3-yl)methyl)propanamide]: over 10 µM.
Regarding `CC(C(=O)NCc1ccc(C(F)(F)F)nc1NCc1ccncc1)c1ccc(NS(C)(=O)=O)c(F)c1` (stereo not shown) [Compound 26, 2-(3-Fluoro-4-(methylsulfonamido)phenyl)-N-((2-((pyridin-4-ylmethyl)amino)-6-(trifluoromethyl)pyridin-3-yl)methyl)propanamide], the IC50 was over 10 µM.
On the same count and under the same terms, next, `CC(C(=O)NCc1ccc(C(F)(F)F)nc1NCc1cccnc1)c1ccc(NS(C)(=O)=O)c(F)c1` (stereo not shown) [Compound 25, 2-(3-Fluoro-4-(methylsulfonamido)phenyl)-N-((2-((pyridin-3-ylmethyl)amino)-6-(trifluoromethyl)pyridin-3-yl)methyl)propanamide]: over 10 µM.
Still for that read-out and setting: next, `C[C@H](C(=O)NCc1ccc(C(F)(F)F)nc1N1CC[C@@H](O)C1)c1ccc(NS(C)(=O)=O)c(F)c1` [Compound 38, (S)-2-(3-Fluoro-4-(methylsulfonamido)phenyl)-N-((2-((R)-3-hydroxypyrrolidin-1-yl)-6-(trifluoromethyl)pyridin-3-yl)methyl)propanamide]: over 10 µM.

The same assay, now with this note: versus compound 17.
Regarding `CC(C(=O)NCc1ccc(C(F)(F)F)nc1N(C)c1ccccc1)c1ccc(NS(C)(=O)=O)c(F)c1` (stereo not shown) [Compound 32, 2-(3-Fluoro-4-(methylsulfonamido)phenyl)-N-((2-(methyl(phenyl)amino)-6-(trifluoromethyl)pyridin-3-yl)methyl)propanamide], the “fold increase in potency for pH compared to phenylamino analogue 17” value amounted to 25 fold.

Another assay has as its target T1, human TRPV1. As to the kind of experiment: Capsaicin assay. In kind it is cell-based. Particulars: hTRPV1 in CHO cells.
Turning to `CC(C(=O)NCc1ccc(C(F)(F)F)nc1)c1ccc(NS(C)(=O)=O)c(F)c1` (stereo not shown) [Compound 12, 2-(3-Fluoro-4-(methylsulfonamido)phenyl)-N-((6-(trifluoromethyl)pyridin-3-yl)methyl)propanamide], the “hTRPV1 antagonism in words” value is reported as “weak antagonist”.
Same read-out and setting: next, `CC(C(=O)NCc1ccc(C(F)(F)F)nc1Nc1ccc(Cl)cc1)c1ccc(NS(C)(=O)=O)c(F)c1` (stereo not shown) [Compound 19, N-((2-((4-Chlorophenyl)amino)-6-(trifluoromethyl)pyridin-3-yl)methyl)-2-(3-fluoro-4-(methylsulfonamido)phenyl)propanamide]: “devoid of activity”; `CC(C(=O)NCc1ccc(C(F)(F)F)nc1N1CCS(=O)(=O)CC1)c1ccc(NS(C)(=O)=O)c(F)c1` (stereo not shown) [Compound 99, N-((2-(1,1-Dioxidothiomorpholino)-6-(trifluoromethyl)pyridin-3-yl)methyl)-2-(3-fluoro-4-(methylsulfonamido)phenyl)propanamide]: “only weak potency”.

Still in this assay, the particulars now being: hTRPV1 in CHO cells, versus compound 2.
For the molecule `CC(C(=O)NCc1ccc(C(F)(F)F)nc1N1CCCCC1)c1ccc(NS(C)(=O)=O)c(F)c1` (stereo not shown) [Compound 45, 2-(3-Fluoro-4-(methylsulfonamido)phenyl)-N-((2-(piperidin-1-yl)-6-(trifluoromethyl)pyridin-3-yl)methyl)propanamide], the “fold more potent than parent 2 for capsaicin antagonism” value came out at 46 fold.
Regarding `CC(C(=O)NCc1ccc(C(F)(F)F)nc1N1CCOCC1)c1ccc(NS(C)(=O)=O)c(F)c1` (stereo not shown) [Compound 97, 2-(3-Fluoro-4-(methylsulfonamido)phenyl)-N-((2-morpholino-6-(trifluoromethyl)pyridin-3-yl)methyl)propanamide], the “fold more potent than parent 2 for capsaicin antagonism” value is reported as 15 fold.

The same assay, now with this note: hTRPV1 in CHO cells, versus compound 3.
For the molecule `C[C@H](C(=O)NCc1ccc(C(F)(F)F)nc1N1CCCCC1)c1ccc(NS(C)(=O)=O)c(F)c1` [Compound 45S, (S)-2-(3-Fluoro-4-(methylsulfonamido)phenyl)-N-((2-(piperidin-1-yl)-6-(trifluoromethyl)pyridin-3-yl)methyl)propanamide], the “fold more potent than lead 3 for capsaicin antagonism” value is “ca. 15 fold”.

Still in this assay, the particulars now being: versus compound 17.
As to `CC(C(=O)NCc1ccc(C(F)(F)F)nc1N(C)c1ccccc1)c1ccc(NS(C)(=O)=O)c(F)c1` (stereo not shown) [Compound 32, 2-(3-Fluoro-4-(methylsulfonamido)phenyl)-N-((2-(methyl(phenyl)amino)-6-(trifluoromethyl)pyridin-3-yl)methyl)propanamide], the “fold increase in potency for CAP compared to phenylamino analogue 17” value is on record as 75 fold.

A word on the IC50: it is the concentration that inhibits the measured activity by half.
